Reference: patent US20250057801A1, “Methods for Treating Traumatic Brain Injury” (The Government of the United States, as Represented by the …, priority 2023, published 2025)

Tests used:
[1] = in vivo; cited from earlier work
[2] = cited from earlier work
[3] = system: penetrating brain injury (PTBI); assay: Western blot of antioxidant, oxidative stress, membrane integrity and apoptosis markers after PTBI; type: in vivo, male Sprague-Dawley rats
Description: (§1) Three experimental groups (N=4-8 male Sprague-Dawley rats/group) were studied. The first group was a sham group in which there was no penetrating brain injury and no treatment with resveratrol triacetate (RES). The second group was subject to a penetrating brain injury (via probe insertion and balloon inflation) and treated with dimethyl sulfoxide, DMSO (vehicle, VEH) and dosed at 15 minutes and 6 hours after injury and then once daily. The third group was subject to a penetrating brain injury and treated with RES and dosed at 15 minutes and six hours after injury and then once daily.
(§2) After 60 minutes of the last dosing at either 24 hours or 3 days post-injury, fresh viable mitochondria were isolated from the injury core of rats' brain. Homogenate fractions were collected for a glutathione assay.
(§3) Mitochondrial bioenergetics parameters were measured using a high-throughput procedure of the Seahorse XFe96 Flux Analyzer. The glutathione content was measured using a 5,5′-dithiobis-(2-nitrobenzoic acid) (DTNB) cycling method/assay. Antioxidant and oxidative stress were measured by a Western blot (WB) analysis.
(§4) Graphs and statistical analysis were performed using GraphPad Prism program. Data are presented as mean±SEM (standard error of means). ANOVA with Fisher post-hoc test was used to evaluate significant difference at * p<0.05 vs. Sham; $ p<0.05 vs. Vehicle (N=4-8 animals/group).

[4] = system: penetrating brain injury (PTBI); assay: Total glutathione content (DTNB cycling assay) in brain homogenate after PTBI; type: in vivo, male Sprague-Dawley rats; conditions: 24 hours post-PTBI
Description: as §1, §2, §3, §4

[5] = system: penetrating brain injury (PTBI); assay: Mitochondrial bioenergetics (Seahorse XFe96 Flux Analyzer) in injury core mitochondria after PTBI; type: in vivo, male Sprague-Dawley rats; conditions: compared to VEH
Description: as §1, §2, §3, §4

In the case of `Oc1ccc(C=Cc2cc(O)cc(O)c2)cc1` [Resveratrol], the half-life [1] is listed as 8 to 14 min and the water solubility [2] is listed as “low water solubility”.
In the case of `CC(=O)Oc1ccc(/C=C/c2cc(OC(C)=O)cc(OC(C)=O)c2)cc1` [RES, 3′,5′,4′-tri-o-acetyl resveratrol], the “Cytochrome C (CYT C) expression compared to VEH” value ([3]; 24 hours post-PTBI) was “+105%”, the “catalase (CAT) expression compared to VEH” value ([3]; 24 hours post-PTBI) was −62% and the “glyceraldehyde 3-phosphate dehydrogenase (GAPDH) expression compared to VEH” value ([3]; 24 hours post-PTBI) was −16.5%. For the same compound, the “lipid peroxidation marker 4-hydroxynonenal (4-HNE) adduct formation compared to VEH” value ([3]; 24 hours post-PTBI) was “non-significant improvement”, the “superoxide dismutase (SOD) expression compared to VEH” value ([3]; 24 hours post-PTBI) was “+42%” and the “thioredoxin (TRX) expression compared to VEH” value ([3]; 24 hours post-PTBI) was “+38%”. The “CAT expression compared to VEH” value ([3]; 3 days post-PTBI) was −30%, the “CYT C expression compared to VEH” value ([3]; 3 days post-PTBI) was “+64%” and the “SOD expression compared to VEH” value ([3]; 3 days post-PTBI) was “+90%”. For the same compound, the “anti-apoptotic protein Bcl-2 expression compared to VEH” value ([3]; 3 days post-PTBI) was “+104%”, the “voltage-dependent anion channels (VDAC) expression compared to VEH” value ([3]; 3 days post-PTBI) was “+47%” and the “total glutathione (GSH) content” value [4] was “reversed PTBI-induced downregulation of total glutathione (GSH) content”. The “bioenergetics in injured core mitochondria, as measured by ATP synthesis” value ([5]; 24 hours post-PTBI) was “trend of improved bioenergetics” and the “bioenergetics in injured core mitochondria” value ([5]; 3 days post-PTBI) was “non-significant trend of bioenergetics improvement”.
